What was measured:
[1] = target: T1, Ectonucleotide pyrophosphatase/phosphodiesterase family member 3 (Homo sapiens, UniProt O14638); experiment: Inhibition of human full length NPP3 expressed in African green monkey COS7 cell membrane fraction using p-nitrophenyl-5'-thymidine monophosphate as substrate preincubated for 10 mins followed by substrate addition measured after 30 mins
T1 sequence (O14638 whole entry): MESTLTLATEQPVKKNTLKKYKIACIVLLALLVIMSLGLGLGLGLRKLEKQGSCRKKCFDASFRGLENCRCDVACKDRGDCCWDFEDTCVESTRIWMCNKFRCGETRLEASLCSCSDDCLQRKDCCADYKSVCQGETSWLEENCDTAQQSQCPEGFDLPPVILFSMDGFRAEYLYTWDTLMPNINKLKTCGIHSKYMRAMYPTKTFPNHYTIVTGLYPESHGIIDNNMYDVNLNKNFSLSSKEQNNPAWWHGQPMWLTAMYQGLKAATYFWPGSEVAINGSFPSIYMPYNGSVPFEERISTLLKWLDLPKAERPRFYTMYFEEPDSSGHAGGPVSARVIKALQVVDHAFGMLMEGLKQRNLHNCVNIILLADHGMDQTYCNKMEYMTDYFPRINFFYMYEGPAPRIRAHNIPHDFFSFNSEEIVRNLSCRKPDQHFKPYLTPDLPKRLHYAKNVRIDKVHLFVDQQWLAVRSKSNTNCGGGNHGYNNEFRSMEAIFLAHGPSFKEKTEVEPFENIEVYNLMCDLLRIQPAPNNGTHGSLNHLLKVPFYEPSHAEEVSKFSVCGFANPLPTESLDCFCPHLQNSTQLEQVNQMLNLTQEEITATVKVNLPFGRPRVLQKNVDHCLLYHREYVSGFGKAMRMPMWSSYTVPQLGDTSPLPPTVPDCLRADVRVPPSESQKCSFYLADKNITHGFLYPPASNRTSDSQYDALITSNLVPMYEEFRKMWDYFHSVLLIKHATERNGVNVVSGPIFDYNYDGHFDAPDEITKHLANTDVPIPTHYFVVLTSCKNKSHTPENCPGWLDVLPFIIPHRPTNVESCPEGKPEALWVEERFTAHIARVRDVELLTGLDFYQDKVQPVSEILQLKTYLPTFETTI

[2] = target: T2, Ectonucleotide pyrophosphatase/phosphodiesterase family member 1 (Homo sapiens, UniProt P22413); experiment: Inhibition of human full length NPP1 expressed in African green monkey COS7 cell membrane fraction using p-nitrophenyl-5'-thymidine monophosphate as substrate preincubated for 10 mins followed by substrate addition measured after 30 mins
T2 sequence (P22413 whole entry): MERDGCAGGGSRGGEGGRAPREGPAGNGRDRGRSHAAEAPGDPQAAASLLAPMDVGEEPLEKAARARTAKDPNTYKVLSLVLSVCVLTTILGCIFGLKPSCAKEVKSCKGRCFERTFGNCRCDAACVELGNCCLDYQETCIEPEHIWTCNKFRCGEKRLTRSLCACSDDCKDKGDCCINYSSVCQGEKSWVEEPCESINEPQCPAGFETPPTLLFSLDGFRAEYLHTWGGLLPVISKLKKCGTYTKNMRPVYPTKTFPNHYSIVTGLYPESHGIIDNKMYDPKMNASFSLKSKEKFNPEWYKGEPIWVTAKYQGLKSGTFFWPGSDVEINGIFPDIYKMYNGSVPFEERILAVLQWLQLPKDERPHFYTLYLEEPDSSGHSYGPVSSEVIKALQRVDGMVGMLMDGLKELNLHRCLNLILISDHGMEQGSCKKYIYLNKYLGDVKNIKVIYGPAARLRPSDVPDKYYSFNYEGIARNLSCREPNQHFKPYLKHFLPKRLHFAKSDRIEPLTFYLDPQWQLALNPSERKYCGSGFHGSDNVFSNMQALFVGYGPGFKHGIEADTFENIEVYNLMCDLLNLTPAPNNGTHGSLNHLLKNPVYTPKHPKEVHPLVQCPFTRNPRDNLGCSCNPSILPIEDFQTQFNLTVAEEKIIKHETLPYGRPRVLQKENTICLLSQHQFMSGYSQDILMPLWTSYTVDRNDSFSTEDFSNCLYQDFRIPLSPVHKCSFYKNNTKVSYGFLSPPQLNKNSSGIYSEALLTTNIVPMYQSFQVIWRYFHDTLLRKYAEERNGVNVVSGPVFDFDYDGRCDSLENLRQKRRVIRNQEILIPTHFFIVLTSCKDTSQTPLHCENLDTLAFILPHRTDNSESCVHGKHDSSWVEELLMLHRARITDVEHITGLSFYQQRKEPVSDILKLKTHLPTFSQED

[3] = target: T3, Ectonucleoside triphosphate diphosphohydrolase 1 (Homo sapiens, UniProt P49961); experiment: Inhibition of human NTPDase1 expressed in African green monkey COS7 cell membrane fraction using ATP as substrate preincubated for 10 mins followed by substrate addition measured after 10 mins by malachite green reagent-based assay
T3 sequence (P49961 whole entry): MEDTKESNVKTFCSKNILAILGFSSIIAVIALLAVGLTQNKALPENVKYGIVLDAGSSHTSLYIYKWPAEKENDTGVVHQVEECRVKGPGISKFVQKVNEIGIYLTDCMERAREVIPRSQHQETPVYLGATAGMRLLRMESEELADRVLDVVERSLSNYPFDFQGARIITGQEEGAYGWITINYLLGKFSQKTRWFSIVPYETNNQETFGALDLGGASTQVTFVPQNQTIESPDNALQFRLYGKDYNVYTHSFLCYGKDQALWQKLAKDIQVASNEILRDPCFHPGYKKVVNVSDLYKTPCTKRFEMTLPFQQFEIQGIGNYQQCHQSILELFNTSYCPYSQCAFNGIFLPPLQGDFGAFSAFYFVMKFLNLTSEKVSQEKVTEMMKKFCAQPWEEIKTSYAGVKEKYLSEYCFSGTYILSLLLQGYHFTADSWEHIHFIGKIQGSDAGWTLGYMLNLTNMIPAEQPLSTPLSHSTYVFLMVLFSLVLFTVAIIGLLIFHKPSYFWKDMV

[4] = target: T4, Ectonucleoside triphosphate diphosphohydrolase 2 (Homo sapiens, UniProt Q9Y5L3); experiment: Inhibition of human NTPDase2 expressed in African green monkey COS7 cell membrane fraction using ATP as substrate preincubated for 10 mins followed by substrate addition measured after 10 mins by malachite green reagent-based assay
T4 sequence (Q9Y5L3 whole entry): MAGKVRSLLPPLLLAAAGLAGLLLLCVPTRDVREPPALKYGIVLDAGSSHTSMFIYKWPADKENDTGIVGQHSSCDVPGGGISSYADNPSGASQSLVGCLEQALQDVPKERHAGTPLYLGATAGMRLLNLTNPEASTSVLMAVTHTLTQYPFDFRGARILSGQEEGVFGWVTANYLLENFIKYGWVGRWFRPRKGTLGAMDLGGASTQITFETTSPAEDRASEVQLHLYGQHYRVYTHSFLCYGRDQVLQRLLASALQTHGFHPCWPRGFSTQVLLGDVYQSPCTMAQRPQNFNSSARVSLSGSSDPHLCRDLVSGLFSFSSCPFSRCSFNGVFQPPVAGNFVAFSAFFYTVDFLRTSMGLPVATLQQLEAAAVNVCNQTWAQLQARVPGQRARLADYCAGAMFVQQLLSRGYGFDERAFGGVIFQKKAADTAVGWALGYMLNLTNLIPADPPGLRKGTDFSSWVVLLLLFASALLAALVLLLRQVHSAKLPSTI

[5] = target: T5, Ectonucleoside triphosphate diphosphohydrolase 8 (Homo sapiens, UniProt Q5MY95); experiment: Inhibition of human NTPDase8 expressed in African green monkey COS7 cell membrane fraction using ATP as substrate preincubated for 10 mins followed by substrate addition measured after 10 mins by malachite green reagent-based assay
T5 sequence (Q5MY95 whole entry): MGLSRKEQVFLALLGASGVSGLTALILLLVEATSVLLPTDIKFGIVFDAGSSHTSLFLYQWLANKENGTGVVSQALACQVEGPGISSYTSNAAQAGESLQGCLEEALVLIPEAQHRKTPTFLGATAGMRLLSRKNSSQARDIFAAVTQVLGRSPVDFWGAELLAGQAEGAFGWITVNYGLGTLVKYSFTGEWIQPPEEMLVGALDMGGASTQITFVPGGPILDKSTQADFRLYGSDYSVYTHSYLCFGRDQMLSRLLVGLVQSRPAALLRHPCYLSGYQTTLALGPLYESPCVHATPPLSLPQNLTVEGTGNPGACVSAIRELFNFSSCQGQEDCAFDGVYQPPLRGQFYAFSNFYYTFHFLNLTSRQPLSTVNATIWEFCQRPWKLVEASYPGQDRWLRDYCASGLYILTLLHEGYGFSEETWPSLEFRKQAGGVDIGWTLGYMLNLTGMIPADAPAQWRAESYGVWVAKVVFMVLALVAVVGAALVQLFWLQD

[6] = target: T6, Ectonucleoside triphosphate diphosphohydrolase 3 (Homo sapiens, UniProt O75355); experiment: Inhibition of human NTPDase3 expressed in African green monkey COS7 cell membrane fraction using ATP as substrate preincubated for 10 mins followed by substrate addition measured after 10 mins by malachite green reagent-based assay
T6 sequence (O75355 whole entry): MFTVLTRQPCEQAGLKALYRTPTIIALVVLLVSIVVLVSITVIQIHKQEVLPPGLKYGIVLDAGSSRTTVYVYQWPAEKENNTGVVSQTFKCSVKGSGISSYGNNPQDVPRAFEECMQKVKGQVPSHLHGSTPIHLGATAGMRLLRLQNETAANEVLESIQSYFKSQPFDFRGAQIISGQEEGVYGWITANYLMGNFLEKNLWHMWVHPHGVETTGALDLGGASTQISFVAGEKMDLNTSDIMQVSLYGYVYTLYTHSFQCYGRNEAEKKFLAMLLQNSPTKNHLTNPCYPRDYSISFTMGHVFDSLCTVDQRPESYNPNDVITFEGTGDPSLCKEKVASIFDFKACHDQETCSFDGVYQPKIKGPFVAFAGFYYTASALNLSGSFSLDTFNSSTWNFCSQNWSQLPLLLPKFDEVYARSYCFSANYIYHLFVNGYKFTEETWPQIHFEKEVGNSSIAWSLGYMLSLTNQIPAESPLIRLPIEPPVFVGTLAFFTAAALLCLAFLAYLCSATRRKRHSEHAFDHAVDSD

IC50 [1] [µM] | IC50 [2] [µM] | IC50 [3] [µM] | IC50 [4] [µM] | IC50 [5] [µM] | IC50 [6] [µM] | SMILES
0.39 | 7.65 | – | – | – | – | FC(F)(F)c1nc2c(Br)cccc2c(Cl)c1Br
> 100 | 20.7 | > 300 | > 300 | > 300 | > 300 | Cc1cccc(-c2c(C(F)(F)F)nc3c(-c4cccc(C)c4)cccc3c2-c2cccc(C)c2)c1
> 100 | 2.81 | > 300 | > 300 | > 300 | > 300 | FC(F)(F)c1nc2c(-c3ccccc3)cccc2c(Cl)c1-c1ccccc1
0.36 | 0.25 | – | – | – | – | COc1ccc(OC)c(-c2cccc3c(Cl)c(Br)c(C(F)(F)F)nc23)c1
> 100 | 0.51 | – | – | – | – | Fc1ccc(-c2c(C(F)(F)F)nc3c(-c4ccc(F)cc4)cccc3c2-c2ccc(F)cc2)cc1
> 100 | 0.35 | – | – | – | – | N#Cc1cccc(-c2cccc3c(Cl)c(Br)c(C(F)(F)F)nc23)c1
> 100 | 5.76 | > 300 | > 300 | > 300 | > 300 | FC(F)(F)c1nc2c(-c3ccsc3)cccc2c(Cl)c1Br
> 100 | 0.18 | – | – | – | – | FC(F)(F)c1nc2c(-c3ccccc3)cccc2c(-c2ccccc2)c1-c1ccccc1
> 100 | 0.31 | – | – | – | – | FC(F)(F)c1ccc(-c2cccc3c(Cl)c(Br)c(C(F)(F)F)nc23)cc1
1.14 | 0.39 | – | – | – | – | COc1ccc(-c2cccc3c(Cl)c(Br)c(C(F)(F)F)nc23)cc1
> 100 | 0.73 | – | – | – | – | Cc1ccc(-c2c(C(F)(F)F)nc3c(-c4ccc(C)cc4)cccc3c2-c2ccc(C)cc2)cc1
> 100 | 9.87 | > 300 | > 300 | > 300 | > 300 | COc1ccc(-c2c(C(F)(F)F)nc3c(-c4ccc(OC)cc4)cccc3c2-c2ccc(OC)cc2)cc1
2.42 | 0.63 | – | – | – | – | O=c1c(Br)c(C(F)(F)F)[nH]c2c(Br)cccc12
– | – | – | – | > 100 | – | Cc1ccc(C(=O)Nc2ccc(S(=O)(=O)O)c3cc(S(=O)(=O)O)cc(S(=O)(=O)O)c23)cc1NC(=O)c1cccc(NC(=O)Nc2cccc(C(=O)Nc3cc(C(=O)Nc4ccc(S(=O)(=O)O)c5cc(S(=O)(=O)O)cc(S(=O)(=O)O)c45)ccc3C)c2)c1 [SURAMIN]

— ChEMBL document CHEMBL4130358, “Chemoselective synthesis and biological evaluation of arylated 2-(Trifluoromethyl) quinolines as nucleotide pyrophosphatase (NPPs) inhibitors” (Eur J Med Chem, 2017)
